From patent US9072698B2, “Method for screening anti-cancer compounds inhibiting function of TM4SF5 and anti-cancer composition containing chalcone compounds” (Seoul National University Industry Foundation, priority 2006, dated 2015)
In brackets after ≈: the same amount, converted by molar mass.

How the values were obtained:
Format in all cases: cell-based
[1] = system: A-549 (lung carcinoma); experiment: In vitro cytotoxicity, sulforhodamine B (SRB) method, A-549; settings: Homo sapiens, A549; A-549, SRB method; read-out: cytotoxicity (ED50) A-549
Method: (§1) The chalcone derivatives of the present invention were evaluated for in vitro cytotoxicity against human carcinoma cell lines using a sulforhodamine B (SRB) method, which was developed in 1989 by the National Cancer Institute (NCI), USA.
(§2) HCT15 (colon adenocarcinoma; ATCC CCL-225), PC-3 (prostate adenocarcinoma; ATCC CRL-1435), and A-549 (lung carcinoma; ATCC CCL-185) cell lines were used. All of these carcinoma cells were sub-cultured at the Korean Research Institute of Bioscience and Biotechnology (KRIBB), Korea.
(§3) The human carcinoma cell lines were cultured in 10% FCS-containing RPMI 1640 medium (Gibco Cat. No. 31800) in an incubator at 37° C. under 5% CO2, and sub-cultured twice per week.
(§4) Cells were detached from the attached surface using 0.25% Trypsin (Sigma) and 3 mM CDTA (1,2-cyclohexane diamine tetraacetic acid, Sigma) in phosphate buffered saline (PBS, Sigma).
(§5) Compounds to be tested (the chalcone derivatives set forth in Table 1) were dissolved in a small amount of dimethylsulfoxide (DMSO, Sigma), and diluted in culture medium to a desired concentration. The final concentration of DMSO was less than 0.5%. The diluted compounds (final concentration: 30, 10, 3, 1 and 0.3 μg/ml) were sterilized through a 0.22-μm microfilter (Millipore). The cytotoxicity of the compounds to human carcinoma cell lines was assessed using a typical SRB method.

[2] = system: HCT15 (colon adenocarcinoma); experiment: In vitro cytotoxicity, sulforhodamine B (SRB) method, HCT15; settings: Homo sapiens; HCT-15, SRB method; read-out: cytotoxicity (ED50) HCT-15
Method: as §1, §2, §3, §4, §5

[3] = system: PC-3 (prostate adenocarcinoma); experiment: In vitro cytotoxicity, sulforhodamine B (SRB) method, PC-3; settings: Homo sapiens; PC-3, SRB method; read-out: cytotoxicity (ED50) PC-3
Method: as §1, §2, §3, §4, §5

Row | SMILES | IC50 [1] | IC50 [2] | IC50 [3]
1 | Cc1ccc(S(=O)(=O)Nc2ccc(C(=O)/C=C/c3cccc(O)c3)cc2)cc1 [Compound 2, 4′-(p-toluenesulfonylamino)-3-hydroxychalcone] | 36 µg/mL (≈ 91.5 µM) | 37 µg/mL (≈ 94 µM) | 39 µg/mL (≈ 99.1 µM)
2 | Cc1ccc(S(=O)(=O)Nc2ccc(C(=O)/C=C/c3ccccc3O)cc2)cc1 [Compound 3, 4′-(p-toluenesulfonylamino)-2-hydroxychalcone] | 35 µg/mL (≈ 89 µM) | 40 µg/mL (≈ 102 µM) | 37 µg/mL (≈ 94 µM)
3 | Cc1ccc(S(=O)(=O)Nc2cccc(C(=O)/C=C/c3ccc(O)cc3)c2)cc1 [Compound 4, 3′-(p-toluenesulfonylamino)-4-hydroxychalcone] | 34 µg/mL (≈ 86.4 µM) | 38 µg/mL (≈ 96.6 µM) | 37 µg/mL (≈ 94 µM)
4 | Cc1ccc(S(=O)(=O)Nc2ccccc2C(=O)/C=C/c2ccc(O)cc2)cc1 [Compound 5, 2′-(p-toluenesulfonylamino)-4-hydroxychalcone] | 40 µg/mL (≈ 102 µM) | 42 µg/mL (≈ 107 µM) | 47 µg/mL (≈ 119 µM)
5 | O=C(/C=C/c1ccc(O)cc1)c1ccc(NS(=O)(=O)c2ccc(O)cc2)cc1 [Compound 6, 4′-(p-hydroxybenzenesulfonylamino)-4-hydroxychalcone] | 41 µg/mL (≈ 104 µM) | 37 µg/mL (≈ 93.6 µM) | 33 µg/mL (≈ 83.5 µM)
6 | O=C(/C=C/c1cccc(O)c1)c1ccc(NS(=O)(=O)c2ccc(O)cc2)cc1 [Compound 7, 4′-(p-hydroxybenzenesulfonylamino)-3-hydroxychalcone] | 30 µg/mL (≈ 75.9 µM) | 33 µg/mL (≈ 83.5 µM) | 37 µg/mL (≈ 93.6 µM)
7 | O=C(/C=C/c1ccccc1O)c1ccc(NS(=O)(=O)c2ccc(O)cc2)cc1 [Compound 8, 4′-(p-hydroxybenzenesulfonylamino)-2-hydroxychalcone] | 31 µg/mL (≈ 78.4 µM) | 30 µg/mL (≈ 75.9 µM) | 34 µg/mL (≈ 86 µM)
8 | O=C(/C=C/c1ccc(O)cc1)c1cccc(NS(=O)(=O)c2ccc(O)cc2)c1 [Compound 9, 3′-(p-hydroxybenzenesulfonylamino)-4-hydroxychalcone] | 40 µg/mL (≈ 101 µM) | 24 µg/mL (≈ 60.7 µM) | 31 µg/mL (≈ 78.4 µM)
9 | O=C(/C=C/c1cccc(O)c1)c1cccc(NS(=O)(=O)c2ccc(O)cc2)c1 [Compound 10, 3′-(p-hydroxybenzenesulfonylamino)-3-hydroxychalcone] | 30 µg/mL (≈ 75.9 µM) | 30 µg/mL (≈ 75.9 µM) | 32 µg/mL (≈ 80.9 µM)
10 | O=C(/C=C/c1ccccc1O)c1cccc(NS(=O)(=O)c2ccc(O)cc2)c1 [Compound 11, 3′-(p-hydroxybenzenesulfonylamino)-2-hydroxychalcone] | 38 µg/mL (≈ 96.1 µM) | 39 µg/mL (≈ 98.6 µM) | 41 µg/mL (≈ 104 µM)
11 | O=C(/C=C/c1ccc(O)cc1)c1ccccc1NS(=O)(=O)c1ccc(O)cc1 [Compound 12, 2′-(p-hydroxybenzenesulfonylamino)-4-hydroxychalcone] | 35 µg/mL (≈ 88.5 µM) | 37 µg/mL (≈ 93.6 µM) | 37 µg/mL (≈ 93.6 µM)
12 | O=C(/C=C/c1cccc(O)c1)c1ccccc1NS(=O)(=O)c1ccc(O)cc1 [Compound 13, 2′-(p-hydroxybenzenesulfonylamino)-3-hydroxychalcone] | 36 µg/mL (≈ 91 µM) | 38 µg/mL (≈ 96.1 µM) | 41 µg/mL (≈ 104 µM)
13 | O=C(/C=C/c1ccccc1O)c1ccccc1NS(=O)(=O)c1ccc(O)cc1 [Compound 14, 2′-(p-hydroxybenzenesulfonylamino)-2-hydroxychalcone] | 31 µg/mL (≈ 78.4 µM) | 38 µg/mL (≈ 96.1 µM) | 29 µg/mL (≈ 73.3 µM)
14 | O=C(/C=C/c1ccc(O)cc1)c1ccc(NS(=O)(=O)c2cccc(O)c2)cc1 [Compound 15, 4′-(m-hydroxybenzenesulfonylamino)-4-hydroxychalcone] | 43 µg/mL (≈ 109 µM) | 33 µg/mL (≈ 83.5 µM) | 41 µg/mL (≈ 104 µM)
15 | O=C(/C=C/c1cccc(O)c1)c1ccc(NS(=O)(=O)c2cccc(O)c2)cc1 [Compound 16, 4′-(m-hydroxybenzenesulfonylamino)-3-hydroxychalcone] | 33 µg/mL (≈ 83.5 µM) | 37 µg/mL (≈ 93.6 µM) | 47 µg/mL (≈ 119 µM)
16 | O=C(/C=C/c1ccccc1O)c1ccc(NS(=O)(=O)c2cccc(O)c2)cc1 [Compound 17, 4′-(m-hydroxybenzenesulfonylamino)-2-hydroxychalcone] | 33 µg/mL (≈ 83.5 µM) | 32 µg/mL (≈ 80.9 µM) | 44 µg/mL (≈ 111 µM)
17 | O=C(/C=C/c1ccc(O)cc1)c1cccc(NS(=O)(=O)c2cccc(O)c2)c1 [Compound 18, 3′-(m-hydroxybenzenesulfonylamino)-4-hydroxychalcone] | 31 µg/mL (≈ 78.4 µM) | 33 µg/mL (≈ 83.5 µM) | 39 µg/mL (≈ 98.6 µM)
18 | O=C(/C=C/c1cccc(O)c1)c1cccc(NS(=O)(=O)c2cccc(O)c2)c1 [Compound 19, 3′-(m-hydroxybenzenesulfonylamino)-3-hydroxychalcone] | 47 µg/mL (≈ 119 µM) | 38 µg/mL (≈ 96.1 µM) | 53 µg/mL (≈ 134 µM)

Row | SMILES | IC50 [1] | IC50 [2] | IC50 [3]
19 | O=C(/C=C/c1ccccc1O)c1cccc(NS(=O)(=O)c2cccc(O)c2)c1 [Compound 20, 3′-(m-hydroxybenzenesulfonylamino)-2-hydroxychalcone] | 35 µg/mL (≈ 88.5 µM) | 40 µg/mL (≈ 101 µM) | 39 µg/mL (≈ 98.6 µM)
20 | O=C(/C=C/c1ccc(O)cc1)c1ccccc1NS(=O)(=O)c1cccc(O)c1 [Compound 21, 2′-(m-hydroxybenzenesulfonylamino)-4-hydroxychalcone] | 39 µg/mL (≈ 98.6 µM) | 31 µg/mL (≈ 78.4 µM) | 43 µg/mL (≈ 109 µM)
21 | O=C(/C=C/c1cccc(O)c1)c1ccccc1NS(=O)(=O)c1cccc(O)c1 [Compound 22, 2′-(m-hydroxybenzenesulfonylamino)-3-hydroxychalcone] | 27 µg/mL (≈ 68.3 µM) | 28 µg/mL (≈ 70.8 µM) | 45 µg/mL (≈ 114 µM)
22 | O=C(/C=C/c1ccccc1O)c1ccccc1NS(=O)(=O)c1cccc(O)c1 [Compound 23, 2′-(m-hydroxybenzenesulfonylamino)-2-hydroxychalcone] | 31 µg/mL (≈ 78.4 µM) | 35 µg/mL (≈ 88.5 µM) | 37 µg/mL (≈ 93.6 µM)
23 | O=C(/C=C/c1ccc(O)cc1)c1ccc(NS(=O)(=O)c2ccc(F)cc2)cc1 [Compound 24, 4′-(p-fluorobenzensulfonylamino)-4-hydroxychalcone] | 50 µg/mL (≈ 126 µM) | 55 µg/mL (≈ 138 µM) | 51 µg/mL (≈ 128 µM)
24 | O=C(/C=C/c1ccc(O)cc1)c1ccc(NS(=O)(=O)c2cccc(F)c2)cc1 [Compound 25, 4′-(m-fluorobenzensulfonylamino)-4-hydroxychalcone] | 51 µg/mL (≈ 128 µM) | 54 µg/mL (≈ 136 µM) | 57 µg/mL (≈ 143 µM)
25 | O=C(/C=C/c1ccc(O)cc1)c1ccc(NS(=O)(=O)c2ccccc2F)cc1 [Compound 26, 4′-(o-fluorobenzensulfonylamino)-4-hydroxychalcone] | 20 µg/mL (≈ 50.3 µM) | 22 µg/mL (≈ 55.4 µM) | 28 µg/mL (≈ 70.5 µM)
26 | O=C(/C=C/c1ccc(O)cc1)c1ccc(NS(=O)(=O)c2ccc([N+](=O)[O-])cc2)cc1 [Compound 27, 4′-(p-nitrobenzensulfonylamino)-4-hydroxychalcone] | 34 µg/mL (≈ 80.1 µM) | 41 µg/mL (≈ 96.6 µM) | 47 µg/mL (≈ 111 µM)
27 | O=C(/C=C/c1ccc(O)cc1)c1ccc(NS(=O)(=O)c2cccc([N+](=O)[O-])c2)cc1 [Compound 28, 4′-(m-nitrobenzensulfonylamino)-4-hydroxychalcone] | 59 µg/mL (≈ 139 µM) | 54 µg/mL (≈ 127 µM) | 57 µg/mL (≈ 134 µM)
28 | O=C(/C=C/c1ccc(O)cc1)c1ccc(NS(=O)(=O)c2ccccc2[N+](=O)[O-])cc1 [Compound 29, 4′-(o-nitrobenzensulfonylamino)-4-hydroxychalcone] | 37 µg/mL (≈ 87.2 µM) | 29 µg/mL (≈ 68.3 µM) | 21 µg/mL (≈ 49.5 µM)
29 | Nc1ccc(S(=O)(=O)Nc2ccc(C(=O)/C=C/c3ccc(O)cc3)cc2)cc1 [Compound 30, 4′-(p-aminobenzensulfonylamino)-4-hydroxychalcone] | 50 µg/mL (≈ 127 µM) | 52 µg/mL (≈ 132 µM) | 59 µg/mL (≈ 150 µM)
30 | Nc1cccc(S(=O)(=O)Nc2ccc(C(=O)/C=C/c3ccc(O)cc3)cc2)c1 [Compound 31, 4′-(m-aminobenzensulfonylamino)-4-hydroxychalcone] | 34 µg/mL (≈ 86.2 µM) | 24 µg/mL (≈ 60.8 µM) | 27 µg/mL (≈ 68.4 µM)
31 | Nc1ccccc1S(=O)(=O)Nc1ccc(C(=O)/C=C/c2ccc(O)cc2)cc1 [Compound 32, 4′-(o-aminobenzensulfonylamino)-4-hydroxychalcone] | 45 µg/mL (≈ 114 µM) | 47 µg/mL (≈ 119 µM) | 41 µg/mL (≈ 104 µM)
32 | O=C(/C=C/c1ccc(O)cc1)c1ccc(NS(=O)(=O)c2ccccc2)cc1 [Compound 33, 4′-(benzensulfonylamino)-4-hydroxychalcone] | 45 µg/mL (≈ 119 µM) | 47 µg/mL (≈ 124 µM) | 42 µg/mL (≈ 111 µM)
33 | CS(=O)(=O)Nc1ccc(C(=O)/C=C/c2ccc(O)cc2)cc1 [Compound 34, 4′-(methanesulfonylamino)-4-hydroxychalcone] | 74 µg/mL (≈ 233 µM) | 54 µg/mL (≈ 170 µM) | 64 µg/mL (≈ 202 µM)
34 | Cc1ccc(S(=O)(=O)Oc2ccc(C(=O)/C=C/c3ccc(O)cc3)cc2)cc1 [Compound 35, 4′-(p-toluenesulfonate)-4-hydroxychalcone] | 47 µg/mL (≈ 119 µM) | 51 µg/mL (≈ 129 µM) | 57 µg/mL (≈ 145 µM)
35 | O=C(/C=C/c1ccc(O)cc1)c1ccc(OS(=O)(=O)c2ccc(F)cc2)cc1 [Compound 36, 4′-(p-fluorobenzenesulfonate)-4-hydroxychalcone] | 41 µg/mL (≈ 103 µM) | 48 µg/mL (≈ 120 µM) | 39 µg/mL (≈ 97.9 µM)
36 | O=C(/C=C/c1ccc(O)cc1)c1ccc(OS(=O)(=O)c2cccc(F)c2)cc1 [Compound 37, 4′-(m-fluorobenzenesulfonate)-4-hydroxychalcone] | 37 µg/mL (≈ 92.9 µM) | 34 µg/mL (≈ 85.3 µM) | 27 µg/mL (≈ 67.8 µM)
